{"source": "patent US20250099486A1", "about": "“WOUND HEALING MEDICAMENT” (The University of Sheffield, priority 2017, published 2025)", "key": {"endothelial cell": {"test_system": "endothelial cell", "settings": "in vitro; reported by Merchan et al. 2010; cited from earlier work"}, "[1]": {"test_system": "chorionic allantoic membrane (CAM)", "experiment": "CAM assay of deoxy sugar-loaded biomaterials (in ovo, implanted day 8, scored day 14)", "format": "in vivo, chicken (Gallus domesticus)", "settings": "loaded (1 mg/ml) in cross-linked chitosan/collagen hydrogels", "method": "Fertilized chicken (Gallus domesticus) eggs were purchased from Big Bird (Raiwind road, Lahore, Pakistan) and incubated at 37° C. from day 2 of fertilization until day 8 in a humidified egg incubator (HHD, 435, China). At day 8, a square window (1 cm^2) was cut into the shell and removed, and a 2 cm^2 piece of the electrospun scaffold or hydrogels (16% PCL electrospun scaffold/CS/PVA hydrogel/CS/collagen hydrogels) placed onto the CAM. Each egg was implanted with one scaffold or hydrogel only.\nThe shell window was closed with parafilm (Bemis Flexible Packaging, USA) and sealed with adhesive tape. After implantation, eggs were placed again at 37° C. in a 40% humidified incubator until day 14. At day 14, biomaterials were retrieved and the eggs were sacrificed. Angiogenesis was quantified by taking light microscope pictures just before scaffold retrieval and then blindly scored by four assessors using histological images of the retrieved materials. The number of implanted and survived eggs is given in the caption of respective CAM assay figures.\nD and L isomers of three-deoxysugars (ribose, fucose and rhamnose) were loaded onto the porous freeze gelated triethyl orthoformate (4%) covalently cross-linked chitosan/collagen (1:1) hydrogels. The hydrogels were soaked in an aqueous solution of sugars (1 mg/ml) and were further lyophilized (freeze dried) to produce porous membranes. As for the electrospun scaffold, the hydrogels were grafted into the fertilized eggs at day 8 and after day 14 the eggs were sacrificed and the effect of sugars on angiogenesis was investigated."}, "CAM [2]": {"test_system": "CAM", "experiment": "Ex-ovo CAM assay, implantation of E2 and 2dDR releasing PHBV scaffolds", "format": "in vivo, chicken (Gallus domesticus)", "settings": "for mean vessel count: control 23.1 (±1.24)", "method": "(§1) All CAM experiments were carried out according to the Home Office, UK guidelines. Fertilised chicken eggs (Gallus domesticus) were purchased from Henry Stewart & Co. (MedEggs, Norwich, UK). The eggs were carefully wiped with 20% industrial methylated spirit (IMS) solution using hand paper towels in order to remove dirt and feathers from the shell. The eggs were then incubated at 37.5° C. until embryonic development day (EDD) 3, lying horizontally in an humidified egg incubator (RCOM King SURO, P&T Poultry, Powys, Wales).\n(§2) On EDD3, the upper surface of the eggs were marked with a felt pen. The eggs were held horizontally (with the marked surface on top) and cracked on the edge of a 1000 ml glass beaker and kept close to the bottom surface of petri dishes. The embryos were then transferred gently into sterile petri dishes and kept in a humidified incubator (Binder, Tuttlingen, Germany) at 38° C.\nScaffolds were cut into 5.5 mm diameter circles using a laser cutting machine (Epilog Laser Cutter, Clevedon, UK) and sterilised under UV light for 1 hour prior to implantation. Two circular scaffolds were placed on CAM at EDD8. Images of the scaffolds were acquired using a digital microscope at EDD 12 and EDD14. Microinjection of rhodamine labelled lectin into the circulation was performed, CAMs were removed and fixed in 3.7% formaldehyde solution. Embryos were then sacrificed at the end of EDD14. Angiogenesis was quantified by counting all blood vessels that converged towards the graft.\nHaematoxylin and Eosin (H&E) staining was performed on cell impregnated scaffolds by modifiying a standard protocol. Briefly, fixed samples were embedded in optimal cutting temperature OCT and frozen in liquid nitrogen for 3 minutes. Sections were cut 8-10 μm thick using a cryostat (Leica Biosystems Nussloch, Germany) at −20° C. Sections were then stained with haematoxylin for 90 seconds and eosin for 5 minutes respectively. Finally H&E images were acquired under a light microscope (Motic DM-B1, Xiamen, China). The total number of blood vessels adjacent to the scaffolds were quantified by counting blood vessels in H&E sections [A. Minajeva, M. Kase, M. Saretok, A. Adamson-Raieste, S. Kase, K. Niinepuu, M Vardja, T. Asser, J. Jaal, Impact of Blood Vessel Quantity and Vascular Expression of CD133 and ICAM-1 on Survival of Glioblastoma Patients, Neurosci J. 2017 (2017) 8 pages] Briefly, all discernible blood vessels adjacent to the scaffolds were counted by two independent researchers using two independent microscopes at 10× magnification from the total of six different slides for each group and six different area of interest from each slide."}, "CAM [3]": {"test_system": "CAM", "experiment": "Ex-ovo CAM assay, direct application of substances", "format": "in vivo, chicken (Gallus domesticus)", "settings": "over 4 days", "method": "as §1, §2\nPlastic rings (˜6.5 mm in diameter) were used as a reservoir for substances and a marker for the implantation area, were placed on the CAM, and the substances were applied as 20 μl volume onto the CAM twice a day to give a […] between EDD7 and EDD11. Images of the rings were acquired using a digital microscope at EDD11, and then 20% lens culinaris agglutinin (LCA) (Vector Laboratories, Peterborough, UK) was injected into the circulation for labelling the intravascular endothelial cells using 30G needles under a dissection microscope (Wild Heerbrugg, Heerbrugg, Switzerland). CAMs were then removed and fixed in 3.7% formaldehyde solution. Embryos were sacrificed at the end of EDD11. Fixed CAM samples were then imaged under a confocal microscope (Zeiss LSM 510 Meta, Jena, Germany) for investigating the effect of substances on the microvascular structure of the CAMs.\nBlood vessels were quantified by segmentation of the images [C. Roma-Rodrigues, A. Heuer-Jungemann, A. R. Fernandes, A. G. Kanaras, P. V. Baptista, Peptide-coated gold nanoparticles for modulation of angiogenesis in vivo, IntJ Nanomedicine. 11 (2016) 2633-2639. doi: 10.2147/IJN.S108661] so as to include all discernible vessels and then counting the branch points and calculating average vessel lengths [D. Ribatti, B. Nico, A. Vacca, M. Presta, The gelatin sponge-chorioallantoic membrane assay, Nat Protoc. 1 (2006) 85-91. doi: 10.1038/nprot.2006.13, P. Brooks, A. P. Montgomery, D. Cheresh, Use of the 10-Day-Old Chick Embryo Model for Studying Angiogenesis, Integrin Protoc. 129 (1999) 257-269. doi: 10.1385/1-59259-249-X: 257] via multiple image processing steps. Firstly, the internal area of the ring was cropped, and the red, green and blue channels were split using Adobe Photoshop CS6 (ADOBE Systems Inc., San Jose, California, USA). The green channel was then imported to ImageJ (Wayne Rasband, National Institutes of Health, USA) for further analysis including unsharp mask filtering, enhancing the local contrast, noise removal and segmentation. Finally, the number of branch points was quantified using quantification software (AngioTool, National Cancer Institute, USA) (FIG. 14A) and average blood vessel lengths were calculated by using binary image histograms with known pixel/mm ratios in ImageJ (Wayne Rasband, National Institutes of Health, USA).\nThe percentage vascular area (VA %) of the microvasculature of CAMs were quantified using confocal images of rhodamine labelled lectin injected CAM samples as shown in FIG. 14B. To do this, images were imported to ImageJ (Wayne Rasband, National Institutes of Health, USA) and converted to binary images after filtering and smoothing processes prior to quantification. VA % was calculated using the histogram list of black and white areas in the image.\nAll chemicals were purchased from Sigma Aldrich unless indicated otherwise. […]"}, "[4]": {"experiment": "E2 and 2dDR release from PHBV scaffolds in PBS", "format": "physicochemical", "settings": "within 7 days", "method": "10% (w/w) PHBV solution loaded was prepared prior to electrospinning. 1 g of PHBV granules (Goodfellow, London, UK) were dissolved in 1 g of methanol (Fisher Scientific, Massachusetts, USA) and 8 g of DCM (Fisher Scientific, Massachusetts, USA) in a fume hood. Four 10% PHBV solutions were prepared prior to addition of substances. Finally, 25 mg E2, 50 mg of E2, 250 mg of 2dDR and 500 mg of 2dDR were then added to each solution per 1 g of PHBV. The mixtures were magnetically stirred overnight.\nScaffolds were cut into pieces so to fit into an 6-well plate, weighed and submerged in 4 ml of PBS. The E2 and 2dDR concentrations released from each group (25 mg E2, 50 mg E2, 250 mg 2dDR, 500 mg 2dDR) were measured […] using a UV-VIS spectrophotometer (Thermo Fischer Evolution 220, Massachusetts, USA) at 238 nm for 2dDR and 220 nm for E2. Absorbance values were converted into concentrations using a standard curve of known concentrations of E2 and 2dDR."}}}
{"smiles": "O=CC[C@@H](O)[C@H](O)[C@H](O)CO", "note": "[2-DG, 2-deoxy-D-Glucose]", "values": [{"measurement": "antiangiogenic activity", "setting": "endothelial cell", "value": "inhibited endothelial capillary formation and endothelial cell migration"}]}
{"smiles": "C[C@@H](O)[C@H](O)[C@H](O)[C@@H](O)C=O", "note": "[Deoxy-D-fucose, D-fucose, reference compound]", "values": [{"measurement": "angiogenic response", "setting": "[1]", "value": "no significant response"}]}
{"smiles": "C[C@@H](O)[C@@H](O)[C@H](O)[C@H](O)C=O", "note": "[Deoxy-D-rhamnose, D-rhamnose, reference compound]", "values": [{"measurement": "angiogenic response", "setting": "[1]", "value": "only a marginal response"}]}
{"smiles": "C[C@]12CC[C@@H]3c4ccc(O)cc4CC[C@H]3[C@@H]1CC[C@@H]2O", "note": "[E2, Oestradiol, reference compound]", "values": [{"measurement": "mean vessel count", "setting": "CAM [2]; 25 mg E2 loaded PHBV scaffolds", "value": "49.5 (±0.92)"}, {"measurement": "mean vessel count", "setting": "CAM [2]; 50 mg E2 loaded PHBV scaffolds", "value": "37.9 (±1.05)"}, {"measurement": "mean number of blood vessels adjacent to the scaffolds (H&E sections)", "setting": "CAM [2]; all concentrations, compared with controls and CAM only groups", "value": "significantly increased"}, {"measurement": "number of discernible blood vessels growing towards the scaffolds in comparison with plain PHBV scaffolds", "setting": "CAM [2]; all groups of releasing PHBV scaffolds", "value": "at least doubled"}, {"measurement": "increase of number of branch points compared to controls", "setting": "CAM [3]; E2 100 ng/day", "value": 1.3, "unit": "fold"}, {"measurement": "increase of number of branch points compared to controls", "setting": "CAM [3]; E2 200 ng/day", "value": 1.5, "unit": "fold"}, {"measurement": "percentage vascular area (VA %) of microvasculature", "setting": "CAM [3]; E2 200 ng/day, control 55.3%±3%", "value": "79.5%±5%"}, {"measurement": "increase of number of branch points compared to controls", "setting": "CAM [3]; E2 600 ng/day", "value": 1.4, "unit": "fold"}, {"measurement": "increase of average vessel length compared to controls", "setting": "CAM [3]; all E2 concentrations (100, 200, 600 ng/day)", "value": 1.2, "unit": "fold"}, {"measurement": "total release from scaffolds, of the initial amount present in the polymer solution", "setting": "[4]; 25 mg E2 per 1 g PHBV scaffold", "value": 1.3, "unit": "%"}, {"measurement": "total release from scaffolds, of the initial amount present in the polymer solution", "setting": "[4]; 50 mg E2 per 1 g PHBV scaffold", "value": 1.6, "unit": "%"}]}
